Measurements as given in patent US20240415914A1, “Water Dispersible Cannabinoid Compositions” (priority 2021, published 2024).

Assay: Stability of cannabinoid and Vitamin E components of Beverage 1 (AB White) stored at 8° C. and 21-25° C., LCMSMS over 570 days
Assay type: physicochemical
Conditions: for Stability in AB White, 8° C. (content by LCMSMS): beverage stored at 8° C.; for Stability in AB White, 21-25° C. (content by LCMSMS): beverage stored at 21-25° C.
Experimental: The LCMSMS was calibrated for 0-1000 ng/ml cannabinoids with the same resin material used in the preparation of the concentrates. At each time period, 100 ml of beverage was diluted with 10 ml of methanol and injected into the LCMSMS for analysis.

CCCc1cc(O)c2c(c1)OC(C)(C)[C@@H]1CCC(C)=C[C@@H]21 [THCV, delta-9-tetrahydrocannabivarin]
Stability in AB White, 8° C. (content by LCMSMS) (day 0): 3.6 µg/mL
Stability in AB White, 8° C. (content by LCMSMS) (day 1): 3.54 µg/mL
Stability in AB White, 8° C. (content by LCMSMS) (day 2): 3.60 µg/mL
Stability in AB White, 8° C. (content by LCMSMS) (day 3): 3.55 µg/mL
Stability in AB White, 8° C. (content by LCMSMS) (day 5): 3.58 µg/mL
Stability in AB White, 8° C. (content by LCMSMS) (day 8): 3.60 µg/mL
Stability in AB White, 8° C. (content by LCMSMS) (day 9): 3.61 µg/mL
Stability in AB White, 8° C. (content by LCMSMS) (day 10): 3.58 µg/mL
Stability in AB White, 8° C. (content by LCMSMS) (day 11): 3.59 µg/mL
Stability in AB White, 8° C. (content by LCMSMS) (day 12): 3.50 µg/mL
Stability in AB White, 8° C. (content by LCMSMS) (day 15): 3.56 µg/mL
Stability in AB White, 8° C. (content by LCMSMS) (day 16): 3.57 µg/mL
Stability in AB White, 8° C. (content by LCMSMS) (day 17): 3.61 µg/mL
Stability in AB White, 8° C. (content by LCMSMS) (day 18): 3.59 µg/mL
Stability in AB White, 8° C. (content by LCMSMS) (day 19): 3.51 µg/mL
Stability in AB White, 8° C. (content by LCMSMS) (day 22): 3.60 µg/mL
Stability in AB White, 8° C. (content by LCMSMS) (day 23): 3.55 µg/mL
Stability in AB White, 8° C. (content by LCMSMS) (day 24): 3.56 µg/mL
Stability in AB White, 8° C. (content by LCMSMS) (day 25): 3.56 µg/mL
Stability in AB White, 8° C. (content by LCMSMS) (day 26): 3.63 µg/mL
Stability in AB White, 8° C. (content by LCMSMS) (day 29): 3.52 µg/mL
Stability in AB White, 8° C. (content by LCMSMS) (day 30): 3.59 µg/mL
Stability in AB White, 8° C. (content by LCMSMS) (day 60): 3.58 µg/mL
Stability in AB White, 8° C. (content by LCMSMS) (day 90): 3.56 µg/mL
Stability in AB White, 8° C. (content by LCMSMS) (day 120): 3.56 µg/mL
Stability in AB White, 8° C. (content by LCMSMS) (day 150): 3.55 µg/mL
Stability in AB White, 8° C. (content by LCMSMS) (day 180): 3.59 µg/mL
Stability in AB White, 8° C. (content by LCMSMS) (day 210): 3.44 µg/mL
Stability in AB White, 8° C. (content by LCMSMS) (day 240): 3.56 µg/mL
Stability in AB White, 8° C. (content by LCMSMS) (day 270): 3.47 µg/mL
Stability in AB White, 8° C. (content by LCMSMS) (day 300): 3.46 µg/mL
Stability in AB White, 8° C. (content by LCMSMS) (day 330): 3.52 µg/mL
Stability in AB White, 8° C. (content by LCMSMS) (day 360): 3.50 µg/mL
Stability in AB White, 8° C. (content by LCMSMS) (day 390): 3.47 µg/mL
Stability in AB White, 8° C. (content by LCMSMS) (day 420): 3.49 µg/mL
Stability in AB White, 8° C. (content by LCMSMS) (day 450): 3.44 µg/mL
Stability in AB White, 8° C. (content by LCMSMS) (day 480): 3.44 µg/mL
Stability in AB White, 8° C. (content by LCMSMS) (day 510): 3.34 µg/mL
Stability in AB White, 8° C. (content by LCMSMS) (day 540): 3.32 µg/mL
Stability in AB White, 8° C. (content by LCMSMS) (day 570): 3.30 µg/mL
Stability in AB White, 21-25° C. (content by LCMSMS) (day 0): 3.6 µg/mL
Stability in AB White, 21-25° C. (content by LCMSMS) (day 1): 3.48 µg/mL
Stability in AB White, 21-25° C. (content by LCMSMS) (day 2): 3.58 µg/mL
Stability in AB White, 21-25° C. (content by LCMSMS) (day 3): 3.54 µg/mL
Stability in AB White, 21-25° C. (content by LCMSMS) (day 5): 3.55 µg/mL
Stability in AB White, 21-25° C. (content by LCMSMS) (day 8): 3.63 µg/mL
Stability in AB White, 21-25° C. (content by LCMSMS) (day 9): 3.55 µg/mL
Stability in AB White, 21-25° C. (content by LCMSMS) (day 10): 3.55 µg/mL
Stability in AB White, 21-25° C. (content by LCMSMS) (day 11): 3.59 µg/mL
Stability in AB White, 21-25° C. (content by LCMSMS) (day 12): 3.47 µg/mL
Stability in AB White, 21-25° C. (content by LCMSMS) (day 15): 3.48 µg/mL
Stability in AB White, 21-25° C. (content by LCMSMS) (day 16): 3.60 µg/mL
Stability in AB White, 21-25° C. (content by LCMSMS) (day 17): 3.51 µg/mL
Stability in AB White, 21-25° C. (content by LCMSMS) (day 18): 3.50 µg/mL
Stability in AB White, 21-25° C. (content by LCMSMS) (day 19): 3.59 µg/mL
Stability in AB White, 21-25° C. (content by LCMSMS) (day 22): 3.52 µg/mL
Stability in AB White, 21-25° C. (content by LCMSMS) (day 23): 3.57 µg/mL
Stability in AB White, 21-25° C. (content by LCMSMS) (day 24): 3.63 µg/mL
Stability in AB White, 21-25° C. (content by LCMSMS) (day 25): 3.54 µg/mL
Stability in AB White, 21-25° C. (content by LCMSMS) (day 26): 3.55 µg/mL
Stability in AB White, 21-25° C. (content by LCMSMS) (day 29): 3.62 µg/mL
Stability in AB White, 21-25° C. (content by LCMSMS) (day 30): 3.48 µg/mL
Stability in AB White, 21-25° C. (content by LCMSMS) (day 60): 3.50 µg/mL
Stability in AB White, 21-25° C. (content by LCMSMS) (day 90): 3.47 µg/mL
Stability in AB White, 21-25° C. (content by LCMSMS) (day 120): 3.45 µg/mL
Stability in AB White, 21-25° C. (content by LCMSMS) (day 150): 3.54 µg/mL
Stability in AB White, 21-25° C. (content by LCMSMS) (day 180): 3.52 µg/mL
Stability in AB White, 21-25° C. (content by LCMSMS) (day 210): 3.40 µg/mL
Stability in AB White, 21-25° C. (content by LCMSMS) (day 240): 3.41 µg/mL
Stability in AB White, 21-25° C. (content by LCMSMS) (day 270): 3.56 µg/mL
Stability in AB White, 21-25° C. (content by LCMSMS) (day 300): 3.52 µg/mL
Stability in AB White, 21-25° C. (content by LCMSMS) (day 330): 3.55 µg/mL
Stability in AB White, 21-25° C. (content by LCMSMS) (day 360): 3.49 µg/mL
Stability in AB White, 21-25° C. (content by LCMSMS) (day 390): 3.40 µg/mL
Stability in AB White, 21-25° C. (content by LCMSMS) (day 420): 3.46 µg/mL
Stability in AB White, 21-25° C. (content by LCMSMS) (day 450): 3.47 µg/mL
Stability in AB White, 21-25° C. (content by LCMSMS) (day 480): 3.30 µg/mL
Stability in AB White, 21-25° C. (content by LCMSMS) (day 510): 3.32 µg/mL
Stability in AB White, 21-25° C. (content by LCMSMS) (day 540): 3.44 µg/mL
Stability in AB White, 21-25° C. (content by LCMSMS) (day 570): 3.30 µg/mL
